System: angiogenesis genes in dermal microvascular endothelial cells
Test: Real time RT-PCR of angiogenesis gene expression during endothelial tube formation
Format: cell-based
Conditions: 1 μM SM, 24 hours
Procedure: For gene expression studies, three independent experiments were run for each SM tested. 90.000 cells/well (6 wells/treatment) of dermal microvascular endothelial cells (Lonza, Walkersville, Md.) were seeded on polymerized GELTREX™ gel matrix (Invitrogen, Carlsbad, Calif.) in 24 well plates. Wells were immediately treated with the same volume of 1 μM SM or PBS. After 24 hours incubation at 37° C. and 5% CO2, cells were extracted using Cell Recovery Solution (BD Biosciences, San Jose, Calif., Cat. #354253). Total RNA was extracted with the RNeasy Mini Kit (Qiagen, Valencia, Calif., Cat. #74104), and retrotranscribed using […]® First-Strand reverse transcriptase (Invitrogen, Carlsbad, Calif., Cat. #11904-018). The real time PCR reactions were performed in an Opticon 2 cycler (MJ Research, Waltham, Mass.). Amplification was performed in a final volume of 25 μl, containing 2 μl cDNA (1:10 dilution from the reversed transcribed reaction) and 2 μl of primer mixture (10 μM each of forward and reverse primers). Samples were amplified as follows: after initial denaturation at 95 C for 2 minutes, reactions were run for 46 cycles at 95° C. for 30 seconds, 60° C. for 30 seconds, and 72° C. for 45 seconds. Fluorescence was measured in every cycle and a melting curve was run after the PCR by increasing temperature from 50 to 96° C. (in 0.5° C. increments). A defined single peak was obtained for all amplicons, thus confirming the specificity of the amplification.
The genes that were monitored were selected based on their relevance to the angiogenesis process. All experiments were done in triplicate. The results are shown in the volcano plots of FIG. 17. Log 2 fold-change is presented in the X-axis and log 10 P value in the Y-axis.

## CCC(=O)OCN1C(=O)C=CC1=O [compound 19630]
  Log2 fold-change of gene expression: 1839: −1.2
  Log2 fold-change of gene expression: 4247: 1.0
  Log2 fold-change of gene expression: 5569: −3.0
  Log2 fold-change of gene expression: 8131: 0.6
  Log2 fold-change of gene expression: 9569: −2.3
  Log2 fold-change of gene expression: 10988: 2.5
  Log2 fold-change of gene expression: 23001: 0.4
  Log2 fold-change of gene expression: 55332: −1.1
  Log2 fold-change of gene expression: 57722: 0.2
  Log2 fold-change of gene expression: 58488: 1.2
  Log2 fold-change of gene expression: 90780: −1.2
  Log2 fold-change of gene expression: 134265: −1.6
  Log2 fold-change of gene expression: AKT1: 0.1
  Log2 fold-change of gene expression: ANGPT1: −0.5
  Log2 fold-change of gene expression: ANGPT2: −1.8
  Log2 fold-change of gene expression: ANGPTL3: −5.0
  Log2 fold-change of gene expression: ANGPTL4: −0.2
  Log2 fold-change of gene expression: ANPEP: −0.4
  Log2 fold-change of gene expression: ANTXR1: −0.3
  Log2 fold-change of gene expression: APOE: 3.3
  Log2 fold-change of gene expression: ARHGEF1: 0.2
  Log2 fold-change of gene expression: Acvrl1: −0.6
  Log2 fold-change of gene expression: Adcy4: 0.0
  Log2 fold-change of gene expression: BAL1: −0.9
  Log2 fold-change of gene expression: BMP1: 0.5
  Log2 fold-change of gene expression: C1orf54: −4.8
  Log2 fold-change of gene expression: CALD1: 1.7
  Log2 fold-change of gene expression: CCL2: 2.3
  Log2 fold-change of gene expression: CCL11: −0.3
  Log2 fold-change of gene expression: CD248: 1.3
  Log2 fold-change of gene expression: CDH5: −0.2
  Log2 fold-change of gene expression: CENTD3: 0.6
  Log2 fold-change of gene expression: CLIC1: −0.1
  Log2 fold-change of gene expression: COL4A3: 0.1
  Log2 fold-change of gene expression: COL18A1: 0.4
  Log2 fold-change of gene expression: COMT: −0.7
  Log2 fold-change of gene expression: CST4: 0.8
  Log2 fold-change of gene expression: CTTNBP2NL: −2.3
  Log2 fold-change of gene expression: CXCL3: 12.1
  Log2 fold-change of gene expression: CXCL5: 4.8
  Log2 fold-change of gene expression: CXCL6: −0.5
  Log2 fold-change of gene expression: CXCL9: −1.0
  Log2 fold-change of gene expression: CXCL10: 4.7
  Log2 fold-change of gene expression: Calcr1: −4.3
  Log2 fold-change of gene expression: Caskin2: −2.8
  Log2 fold-change of gene expression: Ccbp2: −0.1
  Log2 fold-change of gene expression: Cldn5: 0.6
  Log2 fold-change of gene expression: DGKG: 5.4
  Log2 fold-change of gene expression: DKK3: −1.5
  Log2 fold-change of gene expression: DLL4: −4.5
  Log2 fold-change of gene expression: DUT: −0.8
  Log2 fold-change of gene expression: EFNA1: 3.7
  Log2 fold-change of gene expression: EFNA3: −0.4
  Log2 fold-change of gene expression: EFNB2: −1.9
  Log2 fold-change of gene expression: EGF: −1.0
  Log2 fold-change of gene expression: ENG: 0.1
  Log2 fold-change of gene expression: EPHB4: −0.8
  Log2 fold-change of gene expression: EREG: 7.6
  Log2 fold-change of gene expression: ESAM1: −3.3
  Log2 fold-change of gene expression: EXTL3: 1.0
  Log2 fold-change of gene expression: Egf17: −3.8
  Log2 fold-change of gene expression: Ehd4: −1.1
  Log2 fold-change of gene expression: Entpd1: −4.9
  Log2 fold-change of gene expression: Epas1: 1.8
  Log2 fold-change of gene expression: EphB1: 0.0
  Log2 fold-change of gene expression: Erg: −1.6
  Log2 fold-change of gene expression: FGF1: −3.0
  Log2 fold-change of gene expression: FGF2: 1.7
  Log2 fold-change of gene expression: FGFR3: −0.2
  Log2 fold-change of gene expression: FIGF: −3.2
  Log2 fold-change of gene expression: FLT1: −2.1
  Log2 fold-change of gene expression: Fgd5: −1.6
  Log2 fold-change of gene expression: GPCR124: −1.7
  Log2 fold-change of gene expression: GRRP1: 0.0
  Log2 fold-change of gene expression: Grp116: −1.9
  Log2 fold-change of gene expression: HAND2: −0.5
  Log2 fold-change of gene expression: HGF: −0.3
  Log2 fold-change of gene expression: HIF1A: −1.7
  Log2 fold-change of gene expression: HPSE: 0.6
  Log2 fold-change of gene expression: Hspa12b: −4.6
  Log2 fold-change of gene expression: ID1: 1.0
  Log2 fold-change of gene expression: ID3: 0.4
  Log2 fold-change of gene expression: IFNA1: 0.4
  Log2 fold-change of gene expression: IFNB1: −0.4
  Log2 fold-change of gene expression: IFNG: 4.7
  Log2 fold-change of gene expression: IGF1: 3.6
  Log2 fold-change of gene expression: IL1B: 0.2
  Log2 fold-change of gene expression: IL6: 3.5
  Log2 fold-change of gene expression: IL8: 3.0
  Log2 fold-change of gene expression: ITGAV: −0.3
  Log2 fold-change of gene expression: ITGB3: −0.9
  Log2 fold-change of gene expression: Icam1: 0.1
  Log2 fold-change of gene expression: Icam2: 0.4
  Log2 fold-change of gene expression: JAG1: −1.2
  Log2 fold-change of gene expression: KDR: −2.7
  Log2 fold-change of gene expression: Kifc1: 3.4
  Log2 fold-change of gene expression: LAMAS5: −0.8
  Log2 fold-change of gene expression: LECT1: −0.4
  Log2 fold-change of gene expression: LEP: −4.5
  Log2 fold-change of gene expression: Lasts2: −0.1
  Log2 fold-change of gene expression: Lrrk1: −2.9
  Log2 fold-change of gene expression: MDK: −1.1
  Log2 fold-change of gene expression: MMP2: 0.5
  Log2 fold-change of gene expression: MMP9: 0.3
  Log2 fold-change of gene expression: MMP11: 0.8
  Log2 fold-change of gene expression: MRC2: 1.6
  Log2 fold-change of gene expression: Mmm2: −2.4
  Log2 fold-change of gene expression: Myo1b: −2.3
  Log2 fold-change of gene expression: NID1: −2.6
  Log2 fold-change of gene expression: NM023516: 0.5
  Log2 fold-change of gene expression: NRP1: −0.5
  Log2 fold-change of gene expression: NRP2: −2.2
  Log2 fold-change of gene expression: Notch4: −1.8
  Log2 fold-change of gene expression: Npr3: 8.3
  Log2 fold-change of gene expression: PALD: −1.1
  Log2 fold-change of gene expression: PDCD2: 0.5
  Log2 fold-change of gene expression: PDGFA: −0.7
  Log2 fold-change of gene expression: PECAM1: −2.6
  Log2 fold-change of gene expression: PGF: −2.4
  Log2 fold-change of gene expression: PLAU: 0.1
  Log2 fold-change of gene expression: PLG: −2.7
  Log2 fold-change of gene expression: PNMT: 0.7
  Log2 fold-change of gene expression: PROK2: −1.3
  Log2 fold-change of gene expression: PTGS1: −2.4
  Log2 fold-change of gene expression: PTPRCAP: 0.4
  Log2 fold-change of gene expression: Pltp: 0.9
  Log2 fold-change of gene expression: Ptprb: −1.6
  Log2 fold-change of gene expression: Ptprm: −1.2
  Log2 fold-change of gene expression: RAMP2: −4.8
  Log2 fold-change of gene expression: RASD2: 0.9
  Log2 fold-change of gene expression: Rasip1: 3.1
  Log2 fold-change of gene expression: S1PR1: −2.6
  Log2 fold-change of gene expression: SERPINF1: −0.8
  Log2 fold-change of gene expression: SPHK1: −0.5
  Log2 fold-change of gene expression: STAB1: −1.0
  Log2 fold-change of gene expression: Sdc4: 2.2
  Log2 fold-change of gene expression: Sdpr: −0.1
  Log2 fold-change of gene expression: Slc43a3: −0.8
  Log2 fold-change of gene expression: Slco2a1: −2.5
  Log2 fold-change of gene expression: TEK: −0.4
  Log2 fold-change of gene expression: TGFA: 1.1
  Log2 fold-change of gene expression: TGFB1: −1.3
  Log2 fold-change of gene expression: TGFB2: −0.5
  Log2 fold-change of gene expression: TGFBR1: −0.1
  Log2 fold-change of gene expression: THBS1: 0.5
  Log2 fold-change of gene expression: THBS2: −0.6
  Log2 fold-change of gene expression: THY1: −11.3
  Log2 fold-change of gene expression: TIMP1: −0.8
  Log2 fold-change of gene expression: TIMP2: −0.9
  Log2 fold-change of gene expression: TIMP3: 0.7
  Log2 fold-change of gene expression: TNF: −0.6
  Log2 fold-change of gene expression: TNS1: 0.6
  Log2 fold-change of gene expression: TNS3: −1.8
  Log2 fold-change of gene expression: TRA2B: 1.5
  Log2 fold-change of gene expression: TYMP: 0.3
  Log2 fold-change of gene expression: VEGFA: 4.2
  Log2 fold-change of gene expression: VEGFC: 0.1
  Log2 fold-change of gene expression: VGLL4: −1.3
  Log2 fold-change of gene expression: Vwf: −1.8
  Log2 fold-change of gene expression: copa: 0.4
  Log2 fold-change of gene expression: itbp4: −0.8
  Log2 fold-change of gene expression: ralb: 0.1
  Log2 fold-change of gene expression: stard9: −0.7
1st listing (r49)
  Log2 fold-change of gene expression: B2M: 0.0
1st listing (r50)
  Log2 fold-change of gene expression: HPRT1: 0.8
1st listing (r51)
  Log2 fold-change of gene expression: RPL13A: −0.2
1st listing (r52)
  Log2 fold-change of gene expression: GADPH: 0.1
1st listing (r53)
  Log2 fold-change of gene expression: ACTB: 0.1
1st listing (r74)
  Log2 fold-change of gene expression: PLXDC1: −4.0
1st listing (r91)
  Log2 fold-change of gene expression: TNFAIP2: 0.2
1st listing (r95)
  Log2 fold-change of gene expression: Robo4: 0.1
1st listing (r134)
  Log2 fold-change of gene expression: 151516: 1.2
2nd listing (r92)
  Log2 fold-change of gene expression: TNFAIP2: −0.4
2nd listing (r97)
  Log2 fold-change of gene expression: B2M: −0.1
2nd listing (r98)
  Log2 fold-change of gene expression: HPRT1: 0.9
2nd listing (r99)
  Log2 fold-change of gene expression: RPL13A: 0.3
2nd listing (r100)
  Log2 fold-change of gene expression: GADPH: −0.3
2nd listing (r101)
  Log2 fold-change of gene expression: ACTB: −0.3
2nd listing (r104)
  Log2 fold-change of gene expression: PLXDC1: −5.7
2nd listing (r139)
  Log2 fold-change of gene expression: 151516: 0.9
2nd listing (r188)
  Log2 fold-change of gene expression: Robo4: 0.3
3rd listing (r145)
  Log2 fold-change of gene expression: B2M: −1.4
3rd listing (r146)
  Log2 fold-change of gene expression: HPRT1: 0.2
3rd listing (r147)
  Log2 fold-change of gene expression: RPL13A: 1.0
3rd listing (r148)
  Log2 fold-change of gene expression: GADPH: 0.1
3rd listing (r149)
  Log2 fold-change of gene expression: ACTB: −0.9
4th listing (r193)
  Log2 fold-change of gene expression: B2M: −0.9
4th listing (r194)
  Log2 fold-change of gene expression: HPRT1: 2.0
4th listing (r195)
  Log2 fold-change of gene expression: RPL13A: 0.4
4th listing (r196)
  Log2 fold-change of gene expression: GADPH: −1.6
4th listing (r197)
  Log2 fold-change of gene expression: ACTB: −1.6

From patent US9504729B2, “Antiangiogenic small molecules and methods of use” (The United States of America, as represented by the …, priority 2009, dated 2016)
